Results as given in PubChem BioAssay AID1053168 (Broad Institute, 2014).
Activity calls are given as the source filed them. No rule for the calls is given here.

How the values were obtained:
[1] = Vaccinia infected cells, stage specific inhibitors, mcherry venus reporter fluorescence, confirmatory dose response (AID 1053168); conditions: Vaccinia-infected cells, mCherry/Venus stage reporter fluorescence
[2] = system: Vaccinia-infected cells, mCherry/Venus stage reporter fluorescence; assay: as above
[3] = measured here: mCherry reporter AC50
[4] = measured here: Venus reporter AC50

| SMILES | activity change, negative = inhibition ([1]; at 21 µM (top of the series)) | AC50 [2, 3] [µM] | other results |
| --- | --- | --- | --- |
| COc1ccccc1CN1CC[C@H]2[C@H](CO)Nc3ccc(-c4ccc(C(=O)N(C)C)cc4)cc3[C@H]21 | -16.1% (inactive) | > 42 |  |
| CN1c2ccc(-c3ccc(C#N)cc3)cc2[C@H]2[C@H](CCN2C(=O)C2CCCCC2)[C@@H]1CO |  | 18.9 | AC50 [2]: 18.9 µM; AC50 [2, 4]: 20.5 µM |
| O=C(Nc1ccc2c(c1)[C@@H]1C[C@@H](CC(=O)N3CCc4ccccc4C3)O[C@@H](CO)[C@@H]1O2)Nc1ccccc1F |  |  | activity change, negative = inhibition ([1]; at 19.5 µM (top of the series)): -50.6% (inactive) |
| CO[C@H]1CN(C)C(=O)c2ccc(NC(=O)c3ccc(F)cc3)cc2OC[C@H](C)N(C(=O)c2ccc(F)cc2)C[C@@H]1C |  | 15.6 | AC50 [2]: 15.6 µM |
| C[C@H](O)C#Cc1ccc2c(c1)O[C@H](CN(C)Cc1ccccc1)[C@H](C)CN([C@@H](C)CO)S2(=O)=O | -6.79% (inactive) |  |  |
| CCOC(=O)[C@@H]1[C@@H]2C=C[C@]3(O2)[C@H](C(=O)NCc2ccccc2)N(CCCCCCO)C(=O)[C@@H]13 | -18.7% (inactive) | > 42 | AC50 [2, 4]: > 42 µM |
| C[C@@H](O)C#Cc1ccc2c(c1)O[C@H](CN(C)Cc1ccc(-c3ccccc3)cc1)[C@@H](C)CN([C@@H](C)CO)S2(=O)=O |  | 18.9 | AC50 [2]: 18.9 µM; AC50 [2, 4]: 20.8 µM |
| C[C@H](CO)N1C[C@H](C)[C@@H](CN(C)S(=O)(=O)c2ccc(Cl)cc2)Oc2c(NS(=O)(=O)c3cn(C)cn3)cccc2C1=O | -2.63% (inactive) |  |  |
| C[C@@H](O)C#Cc1ccc2c(c1)O[C@@H](CN(C)Cc1cccnc1)[C@@H](C)CN([C@@H](C)CO)S2(=O)=O | 6.15% (inactive) |  |  |
| CN1c2ccc(C#Cc3cccnc3)cc2[C@H]2[C@H](CCN2C(=O)C2CCC2)[C@@H]1CO | -15.9% (inactive) |  |  |
| C[C@H](O)C#Cc1ccc2c(c1)O[C@H](CN(C)Cc1ccccc1)[C@H](C)CN([C@H](C)CO)S2(=O)=O | -3.27% (inactive) |  |  |
| C[C@@H]1CN([C@@H](C)CO)S(=O)(=O)c2ccc(C#C[C@@H](C)O)cc2O[C@@H]1CN(C)Cc1ccccc1 | -27% (inactive) |  | AC50 [2, 4]: > 42 µM |
| CN(C)C(=O)c1ccc(-c2cccc(-c3nc(C(=O)NC4CCCCC4)cc4c3[C@@H](CCO)N([S@](=O)C(C)(C)C)C4)c2)cc1 | -8.97% (inactive) |  |  |
| C[C@H](O)C#Cc1ccc2c(c1)O[C@H](CN(C)Cc1ccccc1)[C@@H](C)CN([C@@H](C)CO)S2(=O)=O | -24.7% (inactive) | > 42 | AC50 [2, 4]: > 42 µM |
| CCCNC(=O)c1cc2c(c(-c3cccc(-c4cccc(F)c4)c3)n1)[C@H](CCO)N([S@@](=O)C(C)(C)C)C2 | -8.81% (inactive) | > 42 |  |
| C[C@H](O)C#Cc1ccc2c(c1)O[C@@H](CN(C)Cc1ccccc1)[C@@H](C)CN([C@H](C)CO)S2(=O)=O | 16.5% (inactive) |  |  |
| C[C@H](O)C#Cc1ccc2c(c1)O[C@H](CN(C)Cc1ccc(-c3ccccc3)cc1)[C@@H](C)CN([C@@H](C)CO)S2(=O)=O |  | 16.4 | AC50 [2]: 16.4 µM; AC50 [2, 4]: 15.9 µM |
| C[C@H](O)C#Cc1ccc2c(c1)O[C@H](CN(C)Cc1ccc(-c3ccccc3)cc1)[C@H](C)CN([C@H](C)CO)S2(=O)=O |  | 17.1 | AC50 [2]: 17.1 µM; AC50 [2, 4]: 20.3 µM |
| COc1ccccc1-c1ccc2c(c1)[C@H]1[C@H](CCN1C(=O)C1CCCCC1)[C@@H](CO)N2 |  | 18.6 | AC50 [2]: 18.6 µM |
| COc1ccccc1CN1CC[C@@H]2[C@@H](CO)Nc3ccc(-c4ccc(C(=O)N(C)C)cc4)cc3[C@@H]21 | -12.1% (inactive) | > 42 | AC50 [2, 4]: > 42 µM |
| COc1ccccc1CN1CC[C@@H]2[C@H]1c1cc(-c3ccc(C(=O)N(C)C)cc3)ccc1N[C@@H]2CO | -27.4% (inactive) | > 42 |  |

| SMILES | activity change, negative = inhibition ([1]; at 21 µM (top of the series)) | AC50 [2, 3] [µM] | other results |
| --- | --- | --- | --- |
| O=C(Nc1ccc2c(c1)[C@@H]1C[C@@H](CC(=O)N3CCCCC3)O[C@@H](CO)[C@@H]1O2)Nc1ccccc1F | 3.1% (inactive) |  |  |
| C[C@@H](O)C#Cc1ccc2c(c1)O[C@@H](CN(C)Cc1ccc(-c3ccccc3)cc1)[C@@H](C)CN([C@@H](C)CO)S2(=O)=O |  | 3.67 | AC50 [2]: 3.67 µM |
| CN1c2ccc(C#Cc3cccnc3)cc2[C@@H]2[C@@H](CCN2C(=O)C2CCC2)[C@H]1CO | -4.64% (inactive) |  |  |
| C[C@@H](O)C#Cc1ccc2c(c1)O[C@@H](CN(C)Cc1ccccc1)[C@@H](C)CN([C@@H](C)CO)S2(=O)=O | -38% (inactive) |  |  |
| C[C@@H]1CN([C@H](C)CO)S(=O)(=O)c2ccc(C#C[C@@H](C)O)cc2O[C@@H]1CN(C)Cc1ccccc1 | -2.36% (inactive) |  |  |
| COc1ccccc1CN1CC[C@@H]2[C@@H](CO)Nc3ccc(C#Cc4ccccc4)cc3[C@@H]21 |  | 20.9 | AC50 [2]: 20.9 µM |
| C[C@@H]1CN([C@@H](C)CO)C(=O)Cc2cc(NC(=O)C3CCCCC3)ccc2O[C@H]1CN(C)C(=O)Nc1ccccc1 | -0.285% (inactive) |  |  |
| CN1c2ccc(C#Cc3cccnc3)cc2[C@H]2[C@H](CCN2C(=O)C2CCCCC2)[C@H]1CO | 19.5% (inactive) |  |  |
| C[C@@H]1CN([C@H](C)CO)S(=O)(=O)c2ccc(C#C[C@@H](C)O)cc2O[C@H]1CN(C)Cc1ccccc1 | -15.2% (inactive) |  |  |
| C[C@H]1CN([C@@H](C)CO)S(=O)(=O)c2ccc(C#CC(C)(C)O)cc2O[C@H]1CN(C)Cc1ccc(-c2ccccc2)cc1 |  | 14.9 | AC50 [2]: 14.9 µM; AC50 [2, 4]: 16.6 µM |
| N#Cc1ccc(-c2ccc3c(c2)[C@H]2[C@H](CCN2C(=O)C2CCCCC2)[C@H](CO)N3)cc1 |  | 20.8 | AC50 [2]: 20.8 µM |
| CCCNC(=O)C[C@H]1CC[C@@H]2[C@@H](COc3ccc(NC(=O)CCC)cc3C(=O)N2C)O1 | 2.55% (inactive) |  |  |
| C[C@H](O)C#Cc1ccc2c(c1)O[C@@H](CN(C)Cc1ccccc1)[C@@H](C)CN([C@@H](C)CO)S2(=O)=O | -2.82% (inactive) |  |  |
| CN1c2ccc(C#Cc3cccnc3)cc2[C@H]2[C@H](CCN2C(=O)C2CCCCC2)[C@@H]1CO | 9.03% (inactive) |  |  |
| C[C@H](O)C#Cc1ccc2c(c1)O[C@@H](CN(C)Cc1ccc(-c3ccccc3)cc1)[C@H](C)CN([C@@H](C)CO)S2(=O)=O |  | 21.8 | AC50 [2]: 21.8 µM; AC50 [2, 4]: 20.5 µM |
| COc1ccccc1CN1CC[C@@H]2[C@H]1c1cc(C#Cc3ccccc3)ccc1N[C@@H]2CO |  | 20.7 | AC50 [2]: 20.7 µM |
| CN1c2ccc(C#Cc3cccnc3)cc2[C@@H]2[C@@H](CCN2C(=O)C2CCC2)[C@@H]1CO | 10.1% (inactive) |  |  |
| C[C@H](CO)N1C[C@H](C)[C@H](CN(C)Cc2ccccc2)Oc2cc(C#C[C@@H](C)O)ccc2S1(=O)=O | 1.54% (inactive) |  |  |
| C[C@@H](O)C#Cc1ccc2c(c1)O[C@@H](CN(C)Cc1ccncc1)[C@@H](C)CN([C@@H](C)CO)S2(=O)=O | 1.8% (inactive) |  |  |
| CN(C)C(=O)c1ccc(-c2cccc(-c3nc(C(=O)NC4CCCC4)cc4c3[C@H](CCO)N([S@@](=O)C(C)(C)C)C4)c2)cc1 | -8.2% (inactive) |  |  |
| Cc1noc(C)c1S(=O)(=O)Nc1ccc2c(c1)C(=O)N([C@@H](C)CO)C[C@@H](C)[C@H](CN(C)S(=O)(=O)c1cccs1)O2 | -3.33% (inactive) |  |  |
